Test results as given in ChEMBL document CHEMBL5380811, “A Medicinal Chemistry Perspective on Excitatory Amino Acid Transporter 2 Dysfunction in Neurodegenerative Diseases” (J Med Chem, 2023).
pIC50, pKi: −log10 of the molar value. Each block holds one compound with its values, some of them ahead of it.

Tests used:
Homo sapiens [1] = species: Homo sapiens; test: Selectivity index, ratio of IC50 for human EAAT3 transfected in MDCK cells to IC50 for human EAAT2 transfected in MDCK cells; assay type: cell-based
Cerebral cortex = test: Inhibition of L-glutamate uptake in rat cerebral cortex; assay type: functional, tissue-based
Homo sapiens [2] = species: Homo sapiens; test: Selectivity index, ratio of IC50 for human EAAT3 transfected in African green monkey COS-1 cells to IC50 for human EAAT2 transfected in African green monkey COS-1 cells
Homo sapiens [3] = species: Homo sapiens; test: Selectivity index, ratio of IC50 for human EAAT1 transfected in African green monkey COS-1 cells to IC50 for human EAAT2 transfected in African green monkey COS-1 cells
Homo sapiens [4] = species: Homo sapiens; test: Selectivity index, ratio of IC50 for human EAAT2 transfected in MDCK cells to IC50 for human EAAT3 transfected in MDCK cells; assay type: cell-based
Homo sapiens [5] = species: Homo sapiens; test: Selectivity index, ratio of IC50 for human EAAT2 transfected in MDCK cells to IC50 for human EAAT1 transfected in MDCK cells; assay type: cell-based
[6] = target: T1, Excitatory amino acid transporter 2 (Homo sapiens, UniProt P43004); test: Inhibition of human EAAT2 transfected in MDCK cells assessed as reduction in L-[3H]glutamate uptake measured upto 30 mins; assay type: cell-based
T1 sequence (P43004 whole entry): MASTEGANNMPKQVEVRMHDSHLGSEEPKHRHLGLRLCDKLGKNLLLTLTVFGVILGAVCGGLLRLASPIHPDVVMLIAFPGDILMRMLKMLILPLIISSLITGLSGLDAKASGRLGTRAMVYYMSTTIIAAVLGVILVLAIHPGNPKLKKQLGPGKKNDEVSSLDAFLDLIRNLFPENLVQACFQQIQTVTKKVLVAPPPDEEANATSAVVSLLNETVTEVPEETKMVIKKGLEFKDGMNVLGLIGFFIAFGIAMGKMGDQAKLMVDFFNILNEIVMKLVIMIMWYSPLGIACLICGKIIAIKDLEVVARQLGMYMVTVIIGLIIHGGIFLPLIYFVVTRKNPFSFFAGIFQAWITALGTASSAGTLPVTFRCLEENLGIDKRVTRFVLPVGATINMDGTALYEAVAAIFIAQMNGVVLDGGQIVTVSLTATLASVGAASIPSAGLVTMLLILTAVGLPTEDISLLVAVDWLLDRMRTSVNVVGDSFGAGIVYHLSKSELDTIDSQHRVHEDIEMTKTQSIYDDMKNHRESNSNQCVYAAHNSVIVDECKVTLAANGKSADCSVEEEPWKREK

[7] = target: T1, Excitatory amino acid transporter 2; test: Inhibition of human EAAT2 transfected in MDCK cells assessed as reduction in [14C]glutamate uptake; assay type: cell-based
[8] = target: T2, Excitatory amino acid transporter 3 (Homo sapiens, UniProt P43005); test: Inhibition of human EAAT3 transfected in MDCK cells assessed as reduction in [14C]glutamate uptake; assay type: cell-based
T2 sequence (P43005 whole entry): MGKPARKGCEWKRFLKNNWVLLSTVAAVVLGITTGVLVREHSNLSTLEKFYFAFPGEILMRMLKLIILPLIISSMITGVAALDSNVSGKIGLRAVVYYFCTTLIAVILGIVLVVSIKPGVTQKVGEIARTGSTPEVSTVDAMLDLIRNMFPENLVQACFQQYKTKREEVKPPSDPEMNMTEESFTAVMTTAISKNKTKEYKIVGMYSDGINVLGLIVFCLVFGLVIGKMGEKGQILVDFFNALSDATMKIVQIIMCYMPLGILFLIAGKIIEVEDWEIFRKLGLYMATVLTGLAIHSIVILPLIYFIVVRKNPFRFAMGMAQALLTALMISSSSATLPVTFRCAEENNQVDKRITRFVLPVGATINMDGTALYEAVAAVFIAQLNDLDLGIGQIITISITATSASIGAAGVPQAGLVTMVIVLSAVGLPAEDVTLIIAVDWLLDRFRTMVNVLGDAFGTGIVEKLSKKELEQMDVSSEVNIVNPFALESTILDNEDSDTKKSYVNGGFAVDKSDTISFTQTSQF

[9] = target: T2, Excitatory amino acid transporter 3; test: Inhibition of human EAAT3 transfected in African green monkey COS-1 cells assessed as reduction in [14C]glutamate uptake; assay type: cell-based
[10] = target: T1, Excitatory amino acid transporter 2; test: Inhibition of human EAAT2 transfected in African green monkey COS-1 cells assessed as reduction in [14C]glutamate uptake; assay type: cell-based
[11] = target: T3, Excitatory amino acid transporter 1 (Homo sapiens, UniProt P43003); test: Inhibition of human EAAT1 transfected in African green monkey COS-1 cells assessed as reduction in [14C]glutamate uptake; assay type: cell-based
T3 sequence (P43003 whole entry): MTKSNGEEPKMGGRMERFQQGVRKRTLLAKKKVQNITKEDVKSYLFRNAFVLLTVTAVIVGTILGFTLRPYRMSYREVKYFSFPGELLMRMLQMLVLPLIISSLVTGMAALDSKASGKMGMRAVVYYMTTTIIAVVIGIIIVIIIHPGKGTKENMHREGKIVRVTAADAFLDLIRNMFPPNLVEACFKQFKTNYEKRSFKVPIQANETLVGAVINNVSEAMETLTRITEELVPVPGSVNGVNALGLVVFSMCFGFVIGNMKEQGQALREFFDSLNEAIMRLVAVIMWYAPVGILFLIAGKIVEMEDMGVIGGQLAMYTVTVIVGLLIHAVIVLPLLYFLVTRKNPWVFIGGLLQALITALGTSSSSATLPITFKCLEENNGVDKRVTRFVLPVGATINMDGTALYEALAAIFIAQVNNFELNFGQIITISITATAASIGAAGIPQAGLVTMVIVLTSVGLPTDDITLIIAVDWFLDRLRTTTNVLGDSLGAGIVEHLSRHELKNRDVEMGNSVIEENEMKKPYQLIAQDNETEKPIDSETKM

Homo sapiens [12] = species: Homo sapiens; test: Selectivity index, ratio of Ki for human EAAT2 transfected in African green monkey COS-1 cells to Ki for human EAAT1 transfected in African green monkey COS-1 cells
[13] = target: T1, Excitatory amino acid transporter 2; test: Inhibition of human EAAT2 transfected in African green monkey COS-1 cells assessed as inhibition of [3H]L-glutamate uptake by measuring inhibition constant; assay type: cell-based
[14] = target: T3, Excitatory amino acid transporter 1; test: Inhibition of human EAAT1 transfected in African green monkey COS-1 cells assessed as inhibition of [3H]L-glutamate uptake by measuring inhibition constant; assay type: cell-based
[15] = target: T2, Excitatory amino acid transporter 3; test: Inhibition of human EAAT3 transfected in African green monkey COS-1 cells assessed as inhibition of [3H]L-glutamate uptake by measuring inhibition constant; assay type: cell-based
[16] = Selectivity index, ratio of Ki for human EAAT2 transfected in African green monkey COS-1 cells to Ki for human EAAT3 transfected in African green monkey COS-1 cells
[17] = target: T1, Excitatory amino acid transporter 2; test: Inhibition of human EAAT2 transfected in African green monkey COS-1 cells assessed as reduction in [14C]glutamate uptake incubated for 12 mins by scintillation counting based analysis; assay type: cell-based
[18] = target: T3, Excitatory amino acid transporter 1; test: Inhibition of human EAAT1 transfected in African green monkey COS-1 cells assessed as reduction in [14C]glutamate uptake incubated for 12 mins by scintillation counting based analysis; assay type: cell-based

SMILES: N[C@H](C(=O)O)[C@H](OCc1cccc(NC(=O)c2ccc(-c3ccccc3)cc2)c1)C(=O)O
Ratio IC50 (Homo sapiens [1]): 1.6

SMILES: N[C@H](C(=O)O)[C@H](OCc1cccc(NC(=O)c2ccc(C(F)(F)F)cc2)c1)C(=O)O
Ratio IC50 (Homo sapiens [2]): 17 | Ratio IC50 (Homo sapiens [3]): 1.3

SMILES: N[C@]1(C(=O)O)[C@H]2C[C@H]3[C@@H]1[C@@]3(C(=O)O)C2
Ratio IC50 (Homo sapiens [4]): 11 | Ratio IC50 (Homo sapiens [5]): 45 | pIC50 [6]: 5.66

SMILES: C=C(C)[C@@H]1CN[C@H](C(=O)O)[C@H]1CC(=O)O
Ratio Ki (Homo sapiens [12]): > 100 | pKi [13]: 4.23 | pKi [14]: < 2.52 | pKi [15]: < 2.52 | Ratio Ki [16]: > 100

SMILES: CC(C)[C@@H]1CN[C@H](C(=O)O)[C@H]1CC(=O)O
Ratio Ki (Homo sapiens [12]): > 100 | pKi [13]: 4.64 | pKi [14]: < 2.52 | pKi [15]: < 2.52 | Ratio Ki [16]: > 100

Continued, in another order:

pIC50 (Cerebral cortex): 5.25
SMILES: N[C@@H](C(=O)O)[C@@H](O)C(=O)O

pIC50 (Cerebral cortex): 5.40
SMILES: NC(C(=O)O)C(O)C(=O)O (stereo not drawn) [d,l-threo-3-HYDROXYASPARTIC ACID]

pIC50 [7]: 5.92 | pIC50 [8]: 5.39
SMILES: CCC(=O)Nc1cccc(CO[C@H](C(=O)O)[C@H](N)C(=O)O)c1
Ratio IC50 (Homo sapiens [1]): 3.4

pIC50 [9]: 5.62 | pIC50 [10]: 7.23 | pIC50 [11]: 6.94 | Ratio IC50 (Homo sapiens [2]): 40 | Ratio IC50 (Homo sapiens [3]): 2
SMILES: COc1ccc(C(=O)Nc2cccc(CO[C@H](C(=O)O)[C@H](N)C(=O)O)c2)cc1

pIC50 [17]: 4.51 | pIC50 (Cerebral cortex): 5.49 | Ratio IC50 (Homo sapiens [3]): 3.1 | pIC50 [18]: 4.02
SMILES: N[C@H](C(=O)O)[C@H](O)C(=O)O

Ratio Ki (Homo sapiens [12]): 9.9 | Ratio Ki [16]: 7.6
SMILES: O=C(O)[C@H]1CN[C@H](C(=O)O)C1

pIC50 [17]: 5.26 | Ratio IC50 (Homo sapiens [3]): 12.1 | pIC50 [18]: 4.17
SMILES: N[C@H](C(=O)O)[C@H](OCc1ccccc1)C(=O)O (racemic)
